This note sets out measurements from patent US20190002429A1, “Derivatives of Xanthone Compounds” (Agency for Science, Technology and Research, priority 2011, published 2019).

One data set concerns MRSA DM09808R. The data set can be described thus: MIC against MRSA DM09808R. In kind it is cell-based, Staphylococcus aureus. Particulars: Methicillin-resistant S. aureus DM09808R.
Data set [1] is described as follows: pH value in different media. The class given is physicochemical. An excerpt:
The pH values were obtained using an electronic pH meter.

The format of data set [2] is physicochemical. To be noted: pH 7. As for the experimental part:
The solvent was added stepwise until the compound was dissolved completely. Then, the stock solution was diluted to series of diluents and the absorbance of each diluent was determined.

In data set [3] the test system is Bacillus cereus ATCC11778. The data set can be described thus: MIC against Bacillus cereus ATCC11778. In kind it is cell-based.
Data set [4] deals with Pseudomonas aeruginosa ATCC27853. Put plainly: MIC against Pseudomonas aeruginosa ATCC27853. In kind it is cell-based.
The next data set has as its system MRSA DM21455. The data set can be described thus: MIC against MRSA DM21455. To be noted: Methicillin-resistant S. aureus DM21455, Source: Eye. In kind it is cell-based, Staphylococcus aureus.
Data set [5] relates to Staphylococcus aureus ATCC29213. The data set can be described thus: MIC against S. aureus ATCC29213. In kind it is cell-based.
Data set [6] deals with Klebsiella pneumoniae ATCC10031. The data set can be described thus: MIC against Klebsiella pneumoniae ATCC10031. The class given is cell-based.
For data set [7], the system named is Mycobacterium tuberculosis. The data set can be described thus: microbe, parasite or virus in culture. To be noted: read-out: MIC100.

As usually defined, the MIC99 is the lowest concentration that inhibits either 99% of growth or 99% of the strains tested, depending on the study. A word on the HC50: it is the concentration giving 50% haemolysis.

≈ marks a conversion by molar mass, not a printed value.

For the compound `COC(=O)C(CCCNC(=N)N)NC(=O)COc1cc2oc3cc(OCC(=O)NC(CCCNC(=N)N)C(=O)OC)c(OC)c(CC=C(C)C)c3c(=O)c2c(O)c1CC=C(C)C` (stereo not shown) [AM-052], the MIC99 with MRSA DM09808R was 3.125 µg/mL (≈ 3.6 µM); in data set [3], 3.125 µg/mL (≈ 3.6 µM); in data set [4], 12.5 µg/mL (≈ 14.4 µM); against MRSA DM21455 it was 1.56 µg/mL (≈ 1.8 µM); in data set [5], 6.25 µg/mL (≈ 7.21 µM); in [6], 6.25 µg/mL (≈ 7.21 µM). The pH in data set [1] (Saline, 50 μg/ml compound) was determined as 5.33 ± 0.05; in [1] (Saline, 100 μg/ml compound) it was 5.33 ± 0.01; in data set [1] (Water, 50 μg/ml compound) it was 6.52 ± 0.29; in [1] (Water, 100 μg/ml compound), 7.66 ± 0.33. Moreover, the Solubility entry in data set [2] is recorded as “not soluble”. Moreover, in the data set on red blood cell, the HC50 was determined as 238 µg/mL.

In the case of `CC[C@@H](CO)NCCN[C@@H](CC)CO` [Ethambutol], the MIC in data set [7] was determined as 20 µM (≈ 4.09 µg/mL).
